Test results published in patent publication US8030452B2, “IFBM'S to promote the specific attachment of target analytes to the surface of orthopedic implants” (priority 2004, dated 2011).

Key:
BMP-2 = target: T1, BMP-2 (Homo sapiens, UniProt P12643); test: Binding of biotinylated peptides to BMP-2 (FIG. 12); conditions: biotinylated peptide
T1 construct: purchased Medtronic
T1 sequence (P12643 283-396): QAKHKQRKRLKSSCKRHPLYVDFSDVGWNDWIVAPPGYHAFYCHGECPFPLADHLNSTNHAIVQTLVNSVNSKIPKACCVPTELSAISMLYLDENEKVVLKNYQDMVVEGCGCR
Procedure: Briefly, peptide stock solutions were made by dissolving the powder in 100% DMSO to make a 10 mM solution of peptide, water was then added for a final stock concentration of peptide of 1 mM in 10% DMSO. Serial dilutions of the peptide were made in PBS-T. A dilution series of BMP-2 with concentrations ranging from 100 nM to 0.1 nM was immobilized onto the wells of microtiter plates (Immulon-4® HBX from Dynex Technologies, Chantilly, Va.) and blocked with 1% BSA. […] The […] were washed 3 times with PBS-T. Streptavidin-alkaline phosphatase (SA-AP) from USB (United States Biochemical, catalog #11687) was added (1:1000 in PBS-T) and incubated 1 hour at room temperature with shaking. The plates were washed 3 times with PBS-T and the amount of peptide:SA-AP was determined by adding PNPP (Sigma-Aldrich, Inc., SigmaFast tablets, catalog #N1891) and allowing the color to develop for about 10 minutes.
To confirm these BMP binding results, the peptides were also tested in an alternate assay format in which the peptide and BMP2 were allowed to bind in solution and then assayed. Briefly, the peptides were synthesized with a biotin group attached to the ε amino group of a lysine residue at the C-terminus of the peptide. […] The plates were washed with TBS-Tween™ 20 and the antibody binding was detected using the chromogenic AP substrate pNPP. […]

BMP-4 = target: T2, BMP-4 (Homo sapiens, UniProt P12644); test: Binding of biotinylated peptides to BMP-4 (FIG. 12); conditions: biotinylated peptide
T2 sequence (P12644 293-408): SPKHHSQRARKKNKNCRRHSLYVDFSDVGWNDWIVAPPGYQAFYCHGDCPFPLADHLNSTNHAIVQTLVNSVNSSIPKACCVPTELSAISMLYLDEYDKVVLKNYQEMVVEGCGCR

BMP-7 = target: T3, BMP-7 (Homo sapiens, UniProt P18075); test: Binding of biotinylated peptides to BMP-7 (FIG. 12); conditions: biotinylated peptide
T3 sequence (P18075 293-431): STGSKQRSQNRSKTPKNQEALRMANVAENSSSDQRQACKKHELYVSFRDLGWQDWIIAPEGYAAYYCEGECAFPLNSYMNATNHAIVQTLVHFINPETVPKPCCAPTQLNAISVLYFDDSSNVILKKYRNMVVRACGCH

BMP on collagen sponge = BMP on collagen sponge (Homo sapiens, UniProt P12643)
Procedure: To each well, a 2/16″ diameter collagen sponge (Medtronic) was added. The collagen and peptide solutions were allowed to incubate for 1.5 hours at room temperature. Sponges were then rinsed three times with 200 μL Medtronic buffer at 2200 rpm for 1 minute. To each sponge, a primary antibody directed at BMP (diluted 1:1000; R&D Systems #MAB3552) was added for 1 hour at room temperature. A secondary antibody conjugated to alkaline phosphatase (1:5000) was then incubated in the system for 0.5 hour at room temperature.

[1] = for binding to titanium: FIG. 3; for EC50: read-out: [peptide] ½ maximal signal (relative affinity for titanium), biotin-conjugated peptide, titanium beads, 1 hour room temperature, absorbance 405 nm
Procedure: AFF6007 and AFF6010 were prepared at 200 μM.
Beads were washed two times with PBS/Tween™ 20.

SSDWGVVASAWDAFEALDASR [compound 2011]
binding to BMP-2 (BMP-2): bound
binding to BMP-4 (BMP-4): bound
binding to BMP-7 (BMP-7): bound

DVNSIWMSRVIEWTYDSGSSGKSSSVDLYFPLKGDVVSR-NH2 [AFF7010]
BMP retained on collagen sponge (BMP on collagen sponge): retains more BMP on the sponge than the sponges without IFBM
amount of BMP-2 retained on collagen with increasing IFBM concentration (BMP on collagen sponge): leads to a larger amount of BMP-2 that is retained on the collagen

DVNSIWMSRVIEWTYDSGSSGKSSFEPLRFPLKGVPVSR-NH2 [AFF7006]
amount of BMP-2 retained on collagen with increasing IFBM concentration (BMP on collagen sponge): leads to a larger amount of BMP-2 that is retained on the collagen

SSSDKCHKHWYCYESKYGGSGSSGK [AFF6007]
binding to titanium [1]: bind to titanium
EC50 [1]: 350 nM

DVNSIWMSRVIEWTYDSGSSGKSRSSDSAFSSFSALEGSVVSR-NH2 [AFF7008]
BMP retained on collagen sponge (BMP on collagen sponge): increase the amount of BMP on the sponge when compared to no IFBM, but to a lesser extent than AFF7010

SSFEPLRFPLKGVPVSRGSSGKDVNSIWMSRVIEWTYDS-NH2 [AFF7005]
amount of BMP-2 retained on collagen with increasing IFBM concentration (BMP on collagen sponge): leads to a larger amount of BMP-2 that is retained on the collagen

SSSVDLYFPLKGDVVSRGSSGKDVNSIWMSRVIEWTYDS-NH2 [AFF7009]
amount of BMP-2 retained on collagen with increasing IFBM concentration (BMP on collagen sponge): leads to a larger amount of BMP-2 that is retained on the collagen

DVNSIWMSRVIEWTYDSGSSGKSSDWGVVASAWDAFEALDASR-NH2 [AFF7017]
BMP retained on collagen sponge (BMP on collagen sponge): increase the amount of BMP on the sponge when compared to no IFBM, but to a lesser extent than AFF7010

SRGGEAAAGAWVSFSALESSR [compound 2007]
binding to BMP-2 (BMP-2): bound
binding to BMP-4 (BMP-4): bound
binding to BMP-7 (BMP-7): bound

SSSDKSHKHWYSYESKYGGSGSSGK [AFF6010]
decrease of affinity for titanium on elimination of the cysteine residues of AFF6007 ([1]; AFF6010 versus AFF6007): about 10 fold
binding to titanium [1]: bind to titanium
EC50 [1]: 3000 nM
